In patent US4740233A, “Substituted 1,2,4-triazolo[1,5-a]-pyrimidine-2-sulfonamides and compositions and methods of controlling undesired vegetation and suppressing the nitrification of ammonium nitrogen in soil” (The Dow Chemical Company, priority 1986, dated 1988):

Tested on: nitrification of ammonium nitrogen
Assay: Suppression of nitrification of ammonium nitrogen in soil
Details: 27° C.
Experimental: A sufficient volume of water was added to 20 g of the soil in a wide-mouth, screw-cap, 4-ounce, glass bottle, such that the moisture content of the mixture was made equal to the 1/3 bar tension value for that soil. The mixture was thoroughly mixed before sealing. […] Acetone slows the rate of soil nitrification and its concentration must be carefully controlled. Single samples of each test chemical were incubated for two weeks at 27° C.
The experiment comprised the following types of samples:
The soil samples were analyzed as follows: Sufficient ammonium sulfate extracting solution was added to the sample, such that the total volume of added water was 50 ml (included water added during sample preparation). The capped mixture was shaken 10 minutes to solubilize nitrate and the soil particulates were allowed to settle. The nitrate concentration in the water phase was determined with a nitrate-specific ion electrode such as Orion Model 93-07.
The non-nitrate nitrogen remaining (% NH4 -N remaining) in the soil after two weeks (performance value) was calculated as follows: [formula]

| SMILES | % NH4-N Remaining After 2 Weeks Incubation (0.01 ppm) [%] | % NH4-N Remaining After 2 Weeks Incubation (0.1 ppm) [%] | % NH4-N Remaining After 2 Weeks Incubation (1 ppm) [%] | % NH4-N Remaining After 2 Weeks Incubation (10 ppm) [%] | % NH4-N Remaining After 2 Weeks Incubation (0.06 ppm) [%] | % NH4-N Remaining After 2 Weeks Incubation (0.25 ppm) [%] | other results |
| --- | --- | --- | --- | --- | --- | --- | --- |
| Cc1cc(C)n2nc(S(=O)(=O)Nc3ccccc3O)nc2n1 [Compound 3] | 0 | 0 | 0 | 25 | – | – | – |
| CNc1ccccc1NS(=O)(=O)c1nc2nc(C)cc(C)n2n1 [Compound 5] | 0 | 0 | 1 | 28 | – | – | – |
| Cc1cc(C)n2nc(S(=O)(=O)Nc3ccccc3C(=O)O)nc2n1 [Compound 11] | 0 | 0 | 0 | 5 | – | – | – |
| Cc1cc(C)n2nc(S(=O)(=O)Nc3ccc(Cl)cc3)nc2n1 [Compound 18] | 0 | 0 | 5 | 50 | – | – | – |
| Cc1cc(C)n2nc(S(=O)(=O)Nc3ccc(Cl)cc3Cl)nc2n1 [Compound 20] | – | – | 8 | – | 0 | 0 | % NH4-N Remaining After 2 Weeks Incubation (0.125 ppm): 0%; % NH4-N Remaining After 2 Weeks Incubation (0.5 ppm): 5% |
| Cc1cc(C)n2nc(S(=O)(=O)Nc3cc(Cl)ccc3Cl)nc2n1 [Compound 21] | 8 | 42 | 68 | 86 | – | – | – |
| Cc1cc(C)n2nc(S(=O)(=O)Nc3cc(Cl)cc(Cl)c3)nc2n1 [Compound 24] | 0 | 28 | 65 | 83 | – | – | – |
| Cc1cc(C)n2nc(S(=O)(=O)Nc3c(F)cccc3C(=O)O)nc2n1 [Compound 27] | 0 | 0 | 0 | 35 | – | – | – |
| Cc1cc(C)n2nc(S(=O)(=O)Nc3cc(C(F)(F)F)ccc3S(=O)(=O)N(C)C)nc2n1 [Compound 28] | 0 | 5 | 42 | 66 | – | – | – |
| Cc1cc(C)n2nc(S(=O)(=O)Nc3ccc(F)cc3F)nc2n1 [Compound 29] | 0 | 0 | 1 | 51 | – | – | – |
| Cc1cc(C)n2nc(S(=O)(=O)Nc3ccccc3C(=O)OC(C)C)nc2n1 [Compound 36] | 0 | 0 | 17 | 60 | – | – | – |
| Cc1cc(C)n2nc(S(=O)(=O)Nc3ccc(Cl)cc3Br)nc2n1 [Compound 40] | – | – | – | 66 | – | – | % NH4-N Remaining After 2 Weeks Incubation (0.6 ppm): 0%; % NH4-N Remaining After 2 Weeks Incubation (1.25 ppm): 0%; % NH4-N Remaining After 2 Weeks Incubation (2.5 ppm): 40%; % NH4-N Remaining After 2 Weeks Incubation (5 ppm): 17% |
| Cc1cc(C)n2nc(S(=O)(=O)Nc3ccccc3C(=O)N(C)C)nc2n1 [Compound 42] | 0 | 0 | 8 | 68 | – | – | – |
| Cc1cc(C)n2nc(S(=O)(=O)Nc3ccc(Cl)cc3C(=O)N(C)C)nc2n1 [Compound 43] | 0 | 0 | 44 | 91 | – | – | – |
| Cc1cc(C)n2nc(S(=O)(=O)Nc3c(Cl)ccc(C)c3Cl)nc2n1 [Compound 46] | 50 | 71 | 88 | 94 | – | – | – |
| Cc1cc(Cl)c(NS(=O)(=O)c2nc3nc(C)cc(C)n3n2)c(Cl)c1 [Compound 47] | 0 | 40 | 73 | 92 | – | – | – |
| Cc1cc(C)n2nc(S(=O)(=O)Nc3ccccc3SC(F)(F)F)nc2n1 [Compound 55] | – | – | 65 | – | 19 | 91 | % NH4-N Remaining After 2 Weeks Incubation (4 ppm): 84% |
| Cc1cc(C)n2nc(S(=O)(=O)Nc3ccccc3S(=O)(=O)C(F)(F)F)nc2n1 [Compound 57] | – | – | 45 | – | 2 | 17 | % NH4-N Remaining After 2 Weeks Incubation (4 ppm): 69% |
| Cc1cc(C)n2nc(S(=O)(=O)Nc3c(C)cccc3Br)nc2n1 [Compound 58] | – | – | 58 | – | 92 | 48 | % NH4-N Remaining After 2 Weeks Incubation (4 ppm): 80% |
| Cc1cc(C)n2nc(S(=O)(=O)Nc3ccccc3SC(F)(F)C(F)F)nc2n1 [Compound 59] | – | – | 51 | – | 11 | 33 | % NH4-N Remaining After 2 Weeks Incubation (4 ppm): 66% |
| Cc1cc(C)n2nc(S(=O)(=O)Nc3ccccc3[S+]([O-])C(F)(F)C(F)F)nc2n1 (stereo not shown) [Compound 60] | – | – | – | 58 | – | – | % NH4-N Remaining After 2 Weeks Incubation (0.6 ppm): 0%; % NH4-N Remaining After 2 Weeks Incubation (1.25 ppm): 0%; % NH4-N Remaining After 2 Weeks Incubation (2.5 ppm): 8%; % NH4-N Remaining After 2 Weeks Incubation (5 ppm): 41% |
| Cc1cc(C)n2nc(S(=O)(=O)Nc3c(C)cccc3C(N)=O)nc2n1 [Compound 61] | – | – | – | 100 | – | – | % NH4-N Remaining After 2 Weeks Incubation (0.6 ppm): 20%; % NH4-N Remaining After 2 Weeks Incubation (1.25 ppm): 34%; % NH4-N Remaining After 2 Weeks Incubation (2.5 ppm): 65%; % NH4-N Remaining After 2 Weeks Incubation (5 ppm): 89% |
| Cc1cc(C)n2nc(S(=O)(=O)Nc3c(C)cccc3C(=O)N(C)C)nc2n1 [Compound 62] | – | – | – | 75 | – | – | % NH4-N Remaining After 2 Weeks Incubation (0.6 ppm): 0%; % NH4-N Remaining After 2 Weeks Incubation (1.25 ppm): 13%; % NH4-N Remaining After 2 Weeks Incubation (5 ppm): 55% |
| Cc1cc(C)n2nc(S(=O)(=O)Nc3c(C)cccc3C(=O)OC(C)C)nc2n1 [Compound 64] | – | – | 62 | – | 19 | 43 | % NH4-N Remaining After 2 Weeks Incubation (4 ppm): 81% |
| CCCSc1ccccc1NS(=O)(=O)c1nc2nc(C)cc(C)n2n1 [Compound 67] | – | – | 41 | – | 0 | 0 | % NH4-N Remaining After 2 Weeks Incubation (4 ppm): 69% |
| Cc1cc(C)n2nc(S(=O)(=O)Nc3cccc(Cl)c3C)nc2n1 [Compound 68] | – | – | 16 | – | 0 | 20 | % NH4-N Remaining After 2 Weeks Incubation (4 ppm): 57% |
| CSc1cccc(C)c1NS(=O)(=O)c1nc2nc(C)cc(C)n2n1 [Compound 70] | – | – | 69 | – | 0 | 29 | % NH4-N Remaining After 2 Weeks Incubation (4 ppm): 87% |
